# Measured values from US8865197B2, “Food formulation for aquatic animals with integrated targeted delivery of bioactive agents” (Israel Oceanographic and Limnological Research Ltd., priority 2005, dated 2014).
# Tested on: rainbow trout
# Assay: Cannulation experiment: plasma cortisol response to oral ACTH with gut modulators
# Format: in vivo, rainbow trout (Oncorhynchus mykiss)
# Details: for Cumulative plasma cortisol: over a 360 min period, oral ACTH 0.5 mg kg^−1
# Method: Rainbow trout of a weight range of 750-1700 g (Spring Valley Trout Farms, Langley, BC) were immunized against firunculosis and vibriosis by injecting them with 0.2 ml fish^−1 of a 1:1 ratio of VIBRIOGEN and FUROGEN (Microtek, BC, Canada), and stocked in 4,000 liter tanks. The tanks were supplied with well water at a temperature of 10±0.5° C. at about 10 exchanges per day. After 10 days fish were transferred gradually over a period of another 10 days to full strength seawater (25-29 ppt). The temperature of the seawater ranged between 7-9° C. according to season. Only following their acclimation to seawater, after another 10 days, were fish used. […] Fish were fed daily about 1% BW of a 42% protein and 33% crude fat diet (Moore-Clark Co., Canada).
# Fish were kept individually in 200 1 fiberglass tub aquaria. Fish in the tanks were confined to one half of the tank with a partition. […] In addition, fish were encouraged to swim against a current, which was generated by a pipe which directed the water inflow to the surface of the tank. The experimental fish were not fed within a given experiment, which normally lasted for 5 days, and were force fed once a week with a 0.5% body weight of a Moore Clark “Royal extrude salmon feed” (42% C.P., 33% C.F.), which was mixed with water at a 1:1 ratio to give a paste which could be intubated into the fish.
# Fish were anesthetized in two stages. They were first sedated in metomidate hydrochloride (Marinil, Wildlife laboratories Inc. CO, USA) in a 250 ppb solution in the 4000 liter holding tanks with the water supply turned off. Fish were netted out of the 4,000 liter tanks into 15 liter of well aerated 100 ppm MS222 (3 amino benzoic acid ethyl ester; SIGMA) solution in SW for a deeper anesthesia. Fish were sedated until active gill ventilation ceased at which point they were taken out of the water, weighed and cannulated.
# Samples were taken of blood to determine plasma cortisol or hCG. Blood sampling was done in two stages: First a volume equal to the dead volume of the cannula (˜250 μl) was withdrawn and discarded, this was followed by sampling 250-500 μl blood, depending on the RIA assay (cortisol or hCG), into a 1 ml EDTA-Aprotinin coated syringe. The blood samples were kept in 500 μl Eppendorf tubes on ice for up to two hours within which time the tubes were centrifuged at 13,000 rpm for 5 min. The supernatant plasma was removed by disposable Pasteur pipettes into Eppendorff tubes and stored at −40° C. until the RIA. When blood samples were taken for hCG analysis they were centrifuged for 5 minutes at 3750 rpm at 5° C.
# To measure plasma cortisol, 20 μl of plasma was applied to a kit by INCSTAR (Minnesota, USA). No significant crossreactivity of this kit was found with dexamethasone (9α-Fluoro-16α-Methyl Predindone, SIGMA), while it crossreacted with cortisol (hydrocortisone; SIGMA), which was used in the clearance rate experiments. Porcine ACTH (SIGMA) which was used for the intubation study elicited a cortisol response in fish but could not be detected reliably by the cortisol RIA. Plasma hCG was also determined based on a RIA (INCSTAR) kit and of the orally applied hCG based on Van der Kraak et al. (1984). ACTH stimulates cortisol production in the interrenal cells of the kidney.
compound,measurement,setting,value
"O=c1[nH]c2ccccc2n1CCCN1CCC(n2c(=O)[nH]c3cc(Cl)ccc32)CC1 [DOM, domperidone]",gut penetrability to ACTH as reflected by plasma cortisol,change relative to no modulator,quadrupled
same,Cumulative plasma cortisol,DOM 4.5 mg kg^−1,4329 ng/kg
"C[C@H](CCC(=O)O)[C@H]1CC[C@H]2[C@@H]3CC[C@@H]4C[C@H](O)CC[C@]4(C)[C@H]3C[C@H](O)[C@]12C [DOC, deoxycholic acid]",cumulative response of cortisol to plasma ACTH,DOC molar concentration 0.0167 in the intubation medium (PBS),7042±3243 ng cortisol kg^−1
ACTH,cumulative response of cortisol to plasma ACTH,DOC molar concentration 0 in the intubation medium (PBS),1454±597 ng cortisol kg^−1
same,Cumulative plasma cortisol,DOM 0 mg kg^−1,1086 ng/kg
